Test results published in patent publication US20040106545A1, “Compounds and methods for modulating cell adhesion” (priority 1996, published 2004).
Positions of bridges follow the written chain, without caps; N, C: chain ends. Residues, ends and D or L forms follow the SMILES beside them. *: point of attachment. For = O=C*

What was measured:
Assay type in all cases: cell-based
[1] = biological target: T1, chick N-cadherin (Gallus gallus, UniProt P10288); assay: Neurite outgrowth of rat cerebellar neurons on N-cadherin expressing 3T3 monolayers (Example 15); settings: for inhibition at 250 µg/mL / inhibition of N-cadherin dependent neurite outgrowth (in words): 250 μg/mL; for inhibition at 250 µg/mL / inhibition at 125 µg/mL: 16-18 hours, read-out: % Inhibition of N-Cadherin Dependent Neurite Outgrowth; for inhibition at 125 µg/mL: 125 μg/mL; for inhibitory activity on N-cadherin dependent neurite outgrowth, structure/activity statements: Tables 8 and 9; for activity on N-cadherin dependent neurite outgrowth (in words): 125 micrograms/mL or below; for reduction in inhibitory activity on flanking HAV with E-cadherin amino acids: 250 μg/mL (Table 8)
T1 construct: expressed in transfected cells; host or cells: 3T3 fibroblasts (monolayer); rat post-natal day 2-3 cerebellar neurons plated on top
T1 sequence (P10288 165-912): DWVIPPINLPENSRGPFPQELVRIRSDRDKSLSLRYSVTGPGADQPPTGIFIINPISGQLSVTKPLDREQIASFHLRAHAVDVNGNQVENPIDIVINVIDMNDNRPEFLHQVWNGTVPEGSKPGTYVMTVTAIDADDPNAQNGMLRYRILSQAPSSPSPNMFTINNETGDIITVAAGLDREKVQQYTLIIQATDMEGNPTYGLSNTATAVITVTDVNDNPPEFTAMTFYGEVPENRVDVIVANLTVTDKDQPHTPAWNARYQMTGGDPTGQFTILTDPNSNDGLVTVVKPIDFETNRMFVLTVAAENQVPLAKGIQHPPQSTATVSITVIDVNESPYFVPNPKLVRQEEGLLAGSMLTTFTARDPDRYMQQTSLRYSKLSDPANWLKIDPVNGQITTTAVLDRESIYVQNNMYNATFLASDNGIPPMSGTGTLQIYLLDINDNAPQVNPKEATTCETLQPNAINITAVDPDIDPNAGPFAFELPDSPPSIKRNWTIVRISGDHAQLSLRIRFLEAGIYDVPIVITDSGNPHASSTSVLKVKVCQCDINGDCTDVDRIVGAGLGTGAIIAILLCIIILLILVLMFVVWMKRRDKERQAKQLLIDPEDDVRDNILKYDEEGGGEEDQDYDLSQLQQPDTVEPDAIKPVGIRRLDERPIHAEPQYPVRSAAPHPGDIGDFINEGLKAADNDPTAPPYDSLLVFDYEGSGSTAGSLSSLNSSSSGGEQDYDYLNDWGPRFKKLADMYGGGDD
Description: Cell culture and neurite outgrowth assays. Co-cultures of cerebellar neurons on monolayers of control 3T3 cells and monolayers of transfected 3T3 cells that express physiological levels of chick N-cadherin or human L1 were established as previously described (Williams et al., Neuron 13:583-594, 1994). In brief, 80,000 3T3 cells (control and transfected) were plated into individual chambers of an eight-chamber tissue culture slide coated with polylysine and fibronectin and cultured in DMEM/10% FCS. After 24 hours, when confluent monolayers had formed, the medium was removed and 3000 cerebellar neurons isolated from post-natal day 2-3 rats were plated into each well in SATO media (Doherty et al., Nature 343:464-466, 1990) supplemented with 2% FCS. All of the test peptides were added immediately before the neurons as a 2× stock prepared in SATO/2% FCS. The co-cultures were maintained for 16-18 hours, at which time they were fixed and immunostained for GAP-43 which is present only in the neurons and delineates the neuritic processes. The mean length of the longest neurite per cell was measured for 150-200 neurons sampled in replicate cultures as previously described (Williams et al., Neuron 13:583-594, 1994). […] Dose-response curves were evaluated and the EC50 values determined.

[2] = system: Madin Darby canine kidney (MDCK) cells; settings: for EC50, decrease of electrical resistance across MDCK cell monolayer: 18 hours
Description: Yet another assay evaluates the effect of a modulating agent on the electrical resistance across a monolayer of cells. For example, Madin Darby canine kidney (MDCK) cells can be exposed to the modulating agent dissolved in medium (e.g., at a final concentration of 0.5 mg/ml for a period of 24 hours). The effect on electrical resistance can be measured using standard techniques. This assay evaluates the effect of a modulating agent on tight junction formation in epithelial cells. In general, the presence of 500 μg/mL modulating agent should result in a statistically significant decrease in electrical resistance after 24 hours.
Madin Darby canine kidney (MDCK) cells were plated in Millicells (Millipore, Bedford, Mass.), at a density of 300,000 cells per Millicell, and cultured in Dulbecco's Modified Eagle Medium (DMEM; Sigma, St. Louis, Mo.) containing 5% fetal calf serum (Sigma, St. Louis, Mo.) until monolayers formed. Monolayers were exposed to the modulating agent dissolved in medium. The electrical resistance was measured using the EVOM device (World Precision Instruments, Sarasota, Fla.). At the time of measurement, fresh medium, with or without the modulating agent, may be added to the Millicells.

[3] = biological target: T2, N-cadherin (Gallus gallus, UniProt P10288); assay: Neurite outgrowth inhibition, rat neurons (Example 21); settings: 500 μg/mL
T2 construct: expressed in transfected cells; host or cells: 3T3 fibroblasts (monolayer)
T2 sequence (P10288 165-912): T1 sequence (P10288 165-912)

In the case of `CC(C)[C@@H]1NC(=O)[C@H](C)NC(=O)[C@H](Cc2c[nH]cn2)NC(=O)[C@@H](NS(C)(=O)=O)CSSC[C@@H](C(N)=O)NC1=O` [CH3—SO2—NH—CHAVC—NH2], the inhibition at 250 µg/mL [1] is reported as 74.7 ± 10.5%, the “effect on electrical resistance across MDCK cells (in words)” value [2] is reported as “complete loss of activity” and the “EC50, decrease of electrical resistance across MDCK cell monolayer” value (shortened to “EC50, decrease”) [2] is reported as “INACTIVE”.
`CC(C)[C@@H]1NC(=O)[C@H](C)NC(=O)[C@H](Cc2c[nH]cn2)NC(=O)[C@@H](NC=O)CSSC[C@@H](C(=O)N[C@@H](CO)C(N)=O)NC1=O` [H—C(O)—NH—CHAVCS—NH2] (For-CHAVCS-NH2; disulfide 1-5 (inferred)) was tested, and the inhibition at 250 µg/mL [1] was 75.8 ± 5.6%.
`CC(=O)N[C@H]1CSSC[C@@H](C(N)=O)NC(=O)[C@@H]2CCCN2C(=O)[C@H](C(C)C)NC(=O)[C@H](C)NC(=O)[C@H](Cc2c[nH]cn2)NC1=O` [N—Ac—CHAVPC—NH2] (Ac-CHAVPC-NH2; disulfide 1-6) was tested, and the inhibition at 125 µg/mL [1] was 58 ± 4.3% and the “inhibitory activity on N-cadherin dependent neurite outgrowth, structure/activity statements” value [1] was “potent inhibitors”.
`CC(=O)N[C@H]1CSSC[C@@H](C(N)=O)NC(=O)[C@H](Cc2ccc(O)cc2)NC(=O)[C@H](C(C)C)NC(=O)[C@H](C)NC(=O)[C@H](Cc2c[nH]cn2)NC1=O` [N—Ac—CHAVYC—NH2] (Ac-CHAVYC-NH2; disulfide 1-6) was tested, and the inhibition at 125 µg/mL [1] was 64.9 ± 1.9%, the inhibition at 250 µg/mL [1] was 64.9% and the “inhibitory activity on N-cadherin dependent neurite outgrowth, structure/activity statements” value [1] was “potent inhibitors”.
With “N—Ac-LRAHAVDING-NH2: linear 10-mer, SEQ ID NO:79 [reference compound]” the “% inhibition of N-cadherin dependent neurite outgrowth” value [1] was 68.8+/−4.1%.
In the case of “N—Ac—CAHAVC—NH2: cyclic peptide, SEQ ID NO:22 (Ac-CAHAVC-NH2; disulfide 1-6 (inferred))”, the “inhibition of N-cadherin dependent neurite outgrowth (in words)” value [1] is reported as “potent inhibitors of neurite outgrowth”, the “activity on N-cadherin dependent neurite outgrowth (in words)” value [1] is reported as “lost activity” and the “inhibitory activity on N-cadherin dependent neurite outgrowth, structure/activity statements” value [1] is reported as “little affect”.
“N—Ac—CHAVCE—NH2: cyclic peptide, SEQ ID NO:92 (Ac-CHAVCE-NH2; disulfide 1-5 (inferred))” was tested, and the “EC50, decrease” value [2] was “INACTIVE”.
For “N—Ac—CHAVDINGC—NH2: cyclic peptide, SEQ ID NO:76 (Ac-CHAVDINGC-NH2; disulfide 1-9 (inferred))”, the “inhibitory activity on N-cadherin dependent neurite outgrowth, structure/activity statements” value [1] was “completely abrogates activity”.
“N—Ac—CHAVSSC—NH2: cyclic peptide, SEQ ID NO:44 (Ac-CHAVSSC-NH2; disulfide 1-7 (inferred))” was tested, and the “reduction in inhibitory activity on flanking HAV with E-cadherin amino acids” value [1] was “substantial” and the “EC50, decrease” value [2] was “INACTIVE”.
For “N—Ac—CLFSHAVC—NH2 (Ac-CLFSHAVC-NH2; disulfide 1-8 (inferred))”, the “effect on electrical resistance across MDCK cells (in words)” value [2] was “loss of activity in this assay” and the “EC50, decrease” value [2] was “INACTIVE”.
With “N—Ac—CLRAHAVC—NH2: cyclic peptide, SEQ ID NO:30 (Ac-CLRAHAVC-NH2; disulfide 1-8 (inferred))” the “inhibitory activity on N-cadherin dependent neurite outgrowth, structure/activity statements” value [1] was “detrimental affect”.
“N—Ac—CLRAHAVDC—NH2: cyclic peptide, SEQ ID NO:32 (Ac-CLRAHAVDC-NH2; disulfide 1-9 (inferred))” was tested, and the “inhibition of N-cadherin dependent neurite outgrowth (in words)” value [1] was “potent inhibitors of neurite outgrowth”, the “activity on N-cadherin dependent neurite outgrowth (in words)” value [1] was “lost activity” and the “inhibitory activity on N-cadherin dependent neurite outgrowth, structure/activity statements” value [1] was “partial recovery of activity”.
“N—Ac—CRAHAVDC—NH2: cyclic peptide, SEQ ID NO:28 (Ac-CRAHAVDC-NH2; disulfide 1-8 (inferred))” was tested, and the “inhibitory activity on N-cadherin dependent neurite outgrowth, structure/activity statements” value [1] was “completely eliminated inhibitory activity” and the “inhibition of neurite outgrowth” value [3] was “(inhibition observed”.
In the case of “N—Ac—CSHAVSC—NH2: cyclic peptide, SEQ ID NO:40 (Ac-CSHAVSC-NH2; disulfide 1-7 (inferred))”, the “reduction in inhibitory activity on flanking HAV with E-cadherin amino acids” value [1] is reported as “complete” and the “EC50, decrease” value [2] is reported as “INACTIVE”.
